Patent US20230295162A1 (EÖTVÖS LORÁND TUDOMÁNYEGYETEM, priority 2020, published 2023)
Read-outs that look alike come from different tables or passages of the source.

Tests used:
[1] = system: A2058 (human metastatic melanoma) cells; experiment: Colorimetric alamarBlue assay, long treatment; settings: read-out: cytotoxicity expressed in IC50, A-2058
[2] = system: H2228 lung cancer cell line; experiment: High-throughput screening, CellTiter-Glo cell viability assay at 100 nM; assay type: cell-based, human; settings: compounds at 100 nM, 72 h, read-out: cytotoxicity expressed in IC50, H2228 (results of High throughput screening)
Protocol: (§1) EBC-1 (obtained from JRCB, https://cellbank.nibiohn.go.jp/english/) and H2228 (obtained from ATCC https://www.lgcstandards-atcc.org/) cell lines were maintained according to the instructions provided by JRCB and ATCC in a 5% CO2 humidified incubator maintained at 37° C. temperature. Effect of compounds on cell viability was measured via CellTiter-Glo® luminescent cell viability assay (Promega, Madison, WI, USA). Cells were plated at 1000 cells/well onto a flat-bottomed, white 96 well plate (BRANDplates, cat. no.: 781965). After 24 h, cells were treated for 72 h with the compounds at 100 nM concentration. After the treatment, medium was removed and CellTiter-Glo® reagent was added. Untreated cells were used as control. The luminescence signal was recorded using a microplate reader (BioTek Synergy 2 Multi-Mode Reader, BioTek, Winooski, VT, USA). Cell viability data (% of untreated control cells) was evaluated with Microsoft Excel.

[3] = system: EBC-1 lung cancer cell line; experiment: as above; assay type: cell-based, human; settings: compounds at 100 nM, 72 h, read-out: cytotoxicity expressed in IC50, EBC-1 (results of High throughput screening)
Protocol: as §1

[4] = system: PANC-1 (human pancreatic carcinoma) cells; experiment: Impedance-based viability assay (xCELLigence SP), long treatment; assay type: cell-based; settings: 72 h, read-out: cytotoxicity expressed in IC50, PANC-1
Description: (Gibco®/Invitrogen Corporation, New York, NY, USA).
Data obtained from each experiment represent mathematical averages.

[5] = system: COLO-205 (human colorectal adenocarcinoma) cells; experiment: Colorimetric alamarBlue assay, long treatment; settings: COLO 205, 72 h, read-out: cytotoxicity expressed in IC50, COLO-205

Row | Compound | IC50 ([1]; alamarBlue, 72 h) | IC50 ([2]; HTS) | IC50 ([3]; HTS) | IC50 ([1]; Homo sapiens, A2058, 72 h) | IC50 ([2]; Homo sapiens, NCI-H2228, HTS) | IC50 ([3]; Homo sapiens, EBC-1, HTS) | IC50 [4] | IC50 [5]
1 | 7-Benzyl-4-(4-(4-ferrocenyl-1H-1,2,3-triazol-1-yl)benzyl)-2,4,6,7,8,9-hexahydroimidazo[1,2-a]pyrido[3,4-e]pyrimidin-5(1H)-one [I/121] | 2500 nM | > 100 nM | > 100 nM | – | – | – | – | –
2 | O=C1C2=C(CCN(Cc3ccccc3)C2)N2CCN=C2N1Cc1ccccc1F [I/2, reference compound] | – | – | – | 2950 nM | > 100 nM | > 100 nM | 4180 nM | 9970 nM
3 | Cc1ccccc1CN1C(=O)C2=C(CCN(Cc3ccc(F)c(F)c3F)C2)N2CCN=C12 [I/10] | – | – | – | > 10000 nM | – | – | > 10000 nM | > 10000 nM
4 | O=C1C2=C(CCN(Cc3ccccc3)C2)N2CCN=C2N1Cc1ccccc1I [I/11] | – | – | – | > 10000 nM | > 100 nM | > 100 nM | > 10000 nM | > 10000 nM
5 | O=C1C2=C(CCN(Cc3ccccc3)C2)N2CCN=C2N1Cc1ccc(F)c(F)c1F [I/29] | – | – | – | > 10000 nM | – | – | 660 nM | > 10000 nM
6 | Cc1ccccc1CN1C(=O)C2=C(CCN(Cc3ccc(C(F)(F)F)c(F)c3)C2)N2CCN=C12 [I/43] | – | – | – | > 10000 nM | > 100 nM | > 100 nM | > 10000 nM | > 10000 nM
7 | O=C1C2=C(CCN(Cc3ccccc3)C2)N2CCN=C2N1CCc1cccc(F)c1 [I/44] | – | – | – | > 10000 nM | – | – | > 10000 nM | > 10000 nM
8 | Cc1ccccc1CN1C(=O)C2=C(CCN(CCc3cccc(F)c3)C2)N2CCN=C12 [I/45] | – | – | – | > 10000 nM | – | – | > 10000 nM | > 10000 nM
9 | Cc1ccccc1CN1C(=O)C2=C(CCN(Cc3cccc(F)c3)C2)N2CCN=C12 [I/53] | – | – | – | – | > 100 nM | > 100 nM | 2000 nM | 2000 nM
10 | O=C1C2=C(CCN(Cc3ccccc3F)C2)N2CCN=C2N1Cc1ccc(I)cc1 [I/54] | – | – | – | – | – | – | 1800 nM | 2000 nM
11 | O=C1C2=C(CCN(Cc3ccc(F)cc3)C2)N2CCN=C2N1Cc1ccc(I)cc1 [I/55] | – | – | – | – | > 100 nM | > 100 nM | 760 nM | 1000 nM
12 | NCc1cccc(CN2CCC3=C(C2)C(=O)N(Cc2ccc(I)cc2)C2=NCCN23)c1 [I/59] | – | – | – | – | > 100 nM | > 100 nM | 660 nM | –
13 | NCc1cccc(CN2C(=O)C3=C(CCN(Cc4ccc(C(F)(F)F)c(F)c4)C3)N3CCN=C23)c1 [I/73] | – | – | – | > 10000 nM | – | – | > 10000 nM | > 10000 nM
14 | Nc1cccc(CN2C(=O)C3=C(CCN(Cc4ccccc4)C3)N3CCN=C23)c1 [I/75] | – | – | – | 25000 nM | > 100 nM | > 100 nM | 6100 nM | –
15 | Nc1ccc(CN2CCC3=C(C2)C(=O)N(Cc2ccc(C(F)(F)F)cc2)C2=NCCN23)cc1 [I/81] | – | – | – | – | > 100 nM | > 100 nM | 21000 nM | –
16 | Nc1ccc(CN2C(=O)C3=C(CCN(Cc4cccc(F)c4)C3)N3CCN=C23)cc1 [I/84] | – | – | – | – | > 100 nM | > 100 nM | 23000 nM | –
17 | Nc1ccc(CN2CCC3=C(C2)C(=O)N(Cc2ccc(F)cc2)C2=NCCN23)cc1 [I/86] | – | – | – | – | > 100 nM | > 100 nM | 25000 nM | –
18 | Nc1ccc(CN2CCC3=C(C2)C(=O)N(Cc2ccc(I)cc2)C2=NCCN23)cc1 [I/87] | – | – | – | – | > 100 nM | > 100 nM | 16000 nM | –
19 | COc1cc(CN2C(=O)C3=C(CCN(Cc4ccc(N)cc4)C3)N3CCN=C23)cc(OC)c1OC [I/89] | – | – | – | – | > 100 nM | > 100 nM | 25000 nM | –
20 | O=C1C2=C(CCN(Cc3ccccc3)C2)N2CCN=C2N1CC1CCNCC1 [I/96] | – | – | – | – | > 100 nM | > 100 nM | – | –
21 | Cc1ccccc1CN1C(=O)C2=C(CCN(CC3CCNC3)C2)N2CCN=C12 (stereo not shown) [I/97] | – | – | – | – | > 100 nM | > 100 nM | – | –

Row | Compound | IC50 ([1]; alamarBlue, 72 h) | IC50 ([2]; HTS) | IC50 ([3]; HTS) | IC50 ([1]; Homo sapiens, A2058, 72 h) | IC50 ([2]; Homo sapiens, NCI-H2228, HTS) | IC50 ([3]; Homo sapiens, EBC-1, HTS) | IC50 [4] | IC50 [5]
22 | O=C1C2=C(CCN(CC3CCNC3)C2)N2CCN=C2N1Cc1ccc(F)cc1 (stereo not shown) [I/98] | – | – | – | – | > 100 nM | > 100 nM | – | –
23 | Cc1ccccc1CN1C(=O)C2=C(CCN(CC3CCCN3)C2)N2CCN=C12 (stereo not shown) [I/99] | – | – | – | – | > 100 nM | > 100 nM | – | –
24 | O=C1C2=C(CCN(CC3CCCN3)C2)N2CCN=C2N1Cc1ccc(F)cc1 (stereo not shown) [I/100] | – | – | – | – | > 100 nM | > 100 nM | – | –
25 | [N-]=[N+]=Nc1cccc(CN2C(=O)C3=C(CCN(Cc4ccccc4)C3)N3CCN=C23)c1 [I/102] | – | – | – | – | > 100 nM | > 100 nM | – | –
26 | Cc1ccccc1CN1C(=O)C2=C(CCN(Cc3cccc(N=[N+]=[N-])c3)C2)N2CCN=C12 [I/103] | – | – | – | 25000 nM | > 100 nM | > 100 nM | 270 nM | –
27 | [N-]=[N+]=Nc1ccc(CN2C(=O)C3=C(CCN(Cc4ccccc4)C3)N3CCN=C23)cc1 [I/104] | – | – | – | 2500 nM | – | – | 500 nM | 250 nM
28 | [N-]=[N+]=Nc1cccc(CN2C(=O)C3=C(CCN(Cc4cccc(F)c4)C3)N3CCN=C23)c1 [I/105] | – | – | – | – | ~100 nM | < 100 nM | – | –
29 | [N-]=[N+]=Nc1ccc(CN2C(=O)C3=C(CCN(Cc4cccc(F)c4)C3)N3CCN=C23)cc1 [I/106] | – | – | – | – | > 100 nM | ~100 nM | – | –
30 | [N-]=[N+]=Nc1ccc(CN2CCC3=C(C2)C(=O)N(Cc2cccc(F)c2)C2=NCCN23)cc1 [I/108] | – | – | – | – | > 100 nM | > 100 nM | – | –
31 | [N-]=[N+]=Nc1ccc(CN2CCC3=C(C2)C(=O)N(Cc2ccc(F)cc2)C2=NCCN23)cc1 [I/109] | – | – | – | – | – | – | 8900 nM | –
32 | [N-]=[N+]=Nc1ccc(CN2CCC3=C(C2)C(=O)N(Cc2ccc(C(F)(F)F)cc2)C2=NCCN23)cc1 [I/110] | – | – | – | – | > 100 nM | > 100 nM | – | –
33 | [N-]=[N+]=Nc1cccc(CN2CCC3=C(C2)C(=O)N(Cc2ccc(C(F)(F)F)c(F)c2)C2=NCCN23)c1 [I/112] | – | – | – | 25000 nM | < 100 nM | < 100 nM | 100 nM | –
34 | [N-]=[N+]=Nc1cccc(CN2CCC3=C(C2)C(=O)N(Cc2ccc(I)cc2)C2=NCCN23)c1 [I/113] | – | – | – | 250 nM | < 100 nM | < 100 nM | 250 nM | –
35 | [N-]=[N+]=Nc1ccc(CN2CCC3=C(C2)C(=O)N(Cc2ccc(C(F)(F)F)c(F)c2)C2=NCCN23)cc1 [I/114] | – | – | – | – | > 100 nM | > 100 nM | – | –
36 | COc1cc(CN2C(=O)C3=C(CCN(Cc4ccc(N=[N+]=[N-])cc4)C3)N3CCN=C23)cc(OC)c1OC [I/116] | – | – | – | – | > 100 nM | > 100 nM | – | –
37 | [N-]=[N+]=Nc1ccc(CN2CCC3=C(C2)C(=O)N(Cc2ccc(N=[N+]=[N-])cc2)C2=NCCN23)cc1 [I/117] | – | – | – | – | > 100 nM | > 100 nM | – | –
38 | [N-]=[N+]=Nc1ccc(CN2CCC3=C(C2)C(=O)N(CC2CNC2)C2=NCCN23)cc1 [I/118] | – | – | – | – | > 100 nM | > 100 nM | – | –
39 | [N-]=[N+]=Nc1ccc(CN2CCC3=C(C2)C(=O)N(CC2CCNCC2)C2=NCCN23)cc1 [I/119] | – | – | – | – | > 100 nM | > 100 nM | – | –
40 | COCCOc1cc2ncnc(Nc3cccc(-c4cn(-c5ccc(CN6CCC7=C(C6)C(=O)N(Cc6ccccc6C)C6=NCCN67)cc5)nn4)c3)c2cc1OCCOC [I/122] | – | – | – | – | > 100 nM | > 100 nM | – | –
41 | COCCOc1cc2ncnc(Nc3cccc(-c4cn(-c5ccc(CN6C(=O)C7=C(CCN(Cc8ccccc8)C7)N7CCN=C67)cc5)nn4)c3)c2cc1OCCOC [I/123] | – | – | – | – | > 100 nM | > 100 nM | – | –
